Data as given in patent US10233180B2, “Substituted nitrogen-containing heterocyclic derivatives, pharmaceutical compositions comprising the same and applications of antitumor thereof” (ZHEJIANG UNIVERSITY, priority 2014, dated 2019).
Where two headings read alike, the source gives them in different places.

How the values were obtained:
Akt1 = molecular target: T1, Akt1 (Homo sapiens, UniProt P31749); test: AKT1/PKBα KinEASE FP Fluorescein Green Assay (fluorescence polarization kinase kit); assay type: biochemical; conditions: 1 h reaction, read-out: Inhibitory activities against Akt1 (IC50)
T1 construct: purchased 32-021
T1 sequence (P31749 whole entry): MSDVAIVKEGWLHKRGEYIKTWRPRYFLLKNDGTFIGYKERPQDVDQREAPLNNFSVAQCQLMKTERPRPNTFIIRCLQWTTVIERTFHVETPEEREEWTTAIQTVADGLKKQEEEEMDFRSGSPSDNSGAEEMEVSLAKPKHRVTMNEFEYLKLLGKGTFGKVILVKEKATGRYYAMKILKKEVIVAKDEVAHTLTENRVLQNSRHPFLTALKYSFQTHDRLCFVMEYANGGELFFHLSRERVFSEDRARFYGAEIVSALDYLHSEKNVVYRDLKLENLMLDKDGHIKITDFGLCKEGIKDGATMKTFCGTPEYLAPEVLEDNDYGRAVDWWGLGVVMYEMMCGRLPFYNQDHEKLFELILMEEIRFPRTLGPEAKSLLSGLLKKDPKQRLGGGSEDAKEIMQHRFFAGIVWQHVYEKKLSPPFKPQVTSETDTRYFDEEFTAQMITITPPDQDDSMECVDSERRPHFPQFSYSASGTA
Procedure: Second, method for determining the inhibitory activities of substituted nitrogen-containing heterocyclic derivatives in the present invention against Akt1 enzyme:
The inhibitory activities of compounds against AKT1/PKBα are determined by using AKT1/PKBα KinEASE™ FP Fluorescein Green Assay (Green fluorescence detection system of Kinase).
Principle adopted by the fluorescence polarization detection of protein kinase B is a competitive reaction: the phosphorylated tracers labeled with fluorescence will compete with unlabeled phosphorylated products produced by reacting with protein kinase B to combine anti-serine antibodies. […] However, in the reaction mixture containing phosphorylated products, fewer tracers will combine with antibodies (fluorescent tracers are replaced from the antibodies), and signals sent our occur depolarizing. Therefore, the change of polarization is directly related to the activity of protein kinase B in the reaction.
Each of 0.25 μl of compounds with a concentration of 50 μM and the positive control are added to a 384-well plate at room temperature, and each sample is provided with three parallel wells, and then 10 μl of STK Substrate 3 Working Solution, 5 μl of AKT1/PKBα Working Solution, 10 μl of ATP Working Solution are added to each sample respectively, the mixtures are slightly vibrated and shaked for a few minutes. Reaction is carried out just after the adding 10 μl of ATP Working Solution, from this time, reacting for 1 h. After 1 h, 5 μl of STK Stop Mix and 5 μl of STK Antibody Mix are added to each sample respectively to stop the reaction. The samples are maintained for 4 h at room temperature after adding is completed, the polarization values of samples are determined by fluorescence polarization of Microplate Reader (Detection of the signals is valid within 24 h), the inhibitory rate of compounds against the enzyme is calculated by polarization value, and thereby IC50 is calculated.
Experiment is set up four control groups at the same time, which are Buffer Control Wells, Tracer Control Wells, No Enzyme Wells and blank control of dimethyl sulfoxide, respectively. Thus obtained data are used to calculate the inhibitory rate (the preparation methods of above various solution required for determining the activities of compounds against enzyme refer to the specification of the kit of AKT1/PKBα KinEASE™ FP Fluorescein Green Assay Catalog #32-021).

[1] = tested on: Human ovarian cancer cell strain OVCAR-8; test: MTT assay, inhibition of tumor cell growth in vitro, 72 h; assay type: cell-based; conditions: OVCAR-8, MTT, read-out: Antitumor proliferative activities of tumor cell (IC50, μM) OVCAR-8
Procedure: (§1) First, inhibitory activity on tumor proliferation in vitro is determined and the structure activity relationship is preliminarily studied, in which different solid tumor cell strains are selected for determining the antitumor activities in vitro of the synthesized compounds.
(§2) Cell strains: Human ovarian cancer cell strain (OVCAR8), colon adenocarcinoma cell strain (HCT-116)
Medium: OVCAR8: RPMI 1640+Fetal Bovine Serum
(§3) Preparing method of medicines: Dissolving the medicine in DMSO to make a 50 mM stock solution, and diluting it according to a certain ratio to obtain 5 different concentrations.
(§4) Two selected tumor cells OVCAR8 and HCT-116 are incubated at 37° C. in a 5% CO2 incubator, which are subcultured when cells grow up to a density of 70˜90% (adherent cells are subcultured after digesting by Duck's EDTA) for later experiments.
(§5) Compounds are dissolved and diluted by dimethyl sulfoxide (DMSO), and tumor cells OVCAR8 and HCT-116 are seeded in a 96-well plate at a density of 4000 cells/200 μl/well, 1 μl of the compounds are added to each well with the final concentration of 50 μM, 10 μM, 2 μM, 0.4 μM and 0.08 μM, which is incubated for 72 h at 37° C. in a 5% CO2 incubator with DMSO (1%) as blank control.
(§6) The calculating formula of cell inhibitory rate is: cell inhibitory rate %=(the OD value of the control group−the OD value of the medication group)/the OD value of the control group×100%, the half maximal inhibitory concentration (IC50) is obtained by Bliss method.

[2] = tested on: human colon cancer cell strain HCT-116; test: as above; assay type: cell-based; conditions: HCT-116, MTT, read-out: Antitumor proliferative activities of tumor cell (IC50, μM) HCT-116 (converted)
Procedure: as §1, §2
HCT-116: RPMI 1640+Fetal Bovine Serum
as §3, §4, §5, §6

With `CCCc1cc(C(=O)N[C@H]2CNCC[C@@H]2c2cc(OC)cc(OC)c2)ccc1-c1c(Br)cnn1C` (racemic) [Compound 54, 3-n-propyl-4-(4-bromo-1-methyl-1H-pyrazol-5-yl)-N-(3,4-trans-4-(3,5-dimethoxyphenyl)piperidin-3-yl)phenyl formamide] the IC50 (Akt1) was 678 nM, the IC50 ([1]; Homo sapiens) was 13.3 µM and the IC50 ([2]; Homo sapiens) was 3.14 µM.

For `Cn1ncc(Br)c1-c1coc(C(=O)N[C@H]2CNCC[C@@H]2c2ccc(Cl)cc2)c1` (racemic) [Compound 26, 4-(4-bromo-1-methyl-1H-pyrazol-5-yl)-N-(3,4-trans-4-(4-chlorphenyl)piperidin-3-yl)furan-2-formamide], the IC50 (Akt1) was 34 nM, the IC50 ([1]; Homo sapiens) was 4.89 µM and the IC50 ([2]; Homo sapiens) was 2.16 µM.

For `Cn1ncc(Cl)c1-c1cc(C(=O)N[C@H]2CNCC[C@@H]2c2ccc(C(F)(F)F)cc2)oc1Cl` [Compound 43, 5-chloro-4-(4-chloro-1-methyl-1H-pyrazol-5-yl)-N-((3R,4R)-4-(4-trifluoromethylphenyl)piperidin-3-yl)furan-2-formamide], the IC50 (Akt1) was 342 nM, the IC50 ([1]; Homo sapiens) was 3.58 µM and the IC50 ([2]; Homo sapiens) was 13.8 µM.

With `Cn1ncc(Cl)c1-c1cc(C(=O)N[C@@H]2CNC(CCN3CCCCC3)C[C@H]2c2ccc(Cl)c(Cl)c2)oc1Cl` (stereo partly drawn) [Compound 108, 5-chloro-4-(4-chloro-1-methyl-1H-pyrazol-5-yl)-N-((3S,4S)-4-(3,4-dichlorophenyl)-6-(2-(piperidin-1-yl)ethyl)piperidin-3-yl)furan-2-formamide] the IC50 (Akt1) was 9 nM, the IC50 ([1]; Homo sapiens) was 2.04 µM and the IC50 ([2]; Homo sapiens) was 0.57 µM.

For `Cn1ncc(Cl)c1-c1coc(C(=O)N[C@H]2CNC[C@@H]2c2ccc(F)c(F)c2)c1` (racemic) [Compound 66], the IC50 (Akt1) was 345 nM, the IC50 ([1]; Homo sapiens) was 3.48 µM and the IC50 ([2]; Homo sapiens) was 3.22 µM.

Compound `Cn1ncc(Cl)c1-c1cc(C(=O)N[C@H]2CNCC[C@@H]2c2ccc(F)c(F)c2)oc1Cl` (racemic) [Compound 31, 5-chloro-4-(4-chloro-1-methyl-1H-pyrazol-5-yl)-N-(3,4-trans-4-(3,4-difluorophenyl)piperidin-3-yl)furan-2-formamide] has an IC50 (Akt1) of 18 nM, an IC50 ([1]; Homo sapiens) of 4.54 µM and an IC50 ([2]; Homo sapiens) of 1.85 µM.

In the case of `Cn1ncc(Cl)c1-c1cnc(C(=O)N[C@@H]2CNCC[C@H]2c2ccc(Cl)c(C(F)(F)F)c2)cc1Cl` [Compound 95, 4-chloro-5-(4-chloro-1-methyl-1H-pyrazol-5-yl)-N-((3S,4S)-4-(4-chloro-3-(trifluoromethyl)phenyl)piperidin-3-yl)picolinamide], the IC50 (Akt1) is reported as 17 nM, the IC50 ([1]; Homo sapiens) is reported as 0.98 µM and the IC50 ([2]; Homo sapiens) is reported as 0.95 µM.

`Cn1ncc(Cl)c1-c1ccc(C(=O)N[C@@H]2CNCC[C@H]2c2cccc(F)c2)cc1` [Compound 73, 4-(4-chloro-1-methyl-1H-pyrazol-5-yl)-N-((3S,4S)-4-(3-fluorophenyl)piperidin-3-yl)benzamide] was tested, and the IC50 (Akt1) was 7 nM, the IC50 ([1]; Homo sapiens) was 2.45 µM and the IC50 ([2]; Homo sapiens) was 1.21 µM.

`Cn1ncc(Cl)c1-c1cc(C(=O)N[C@@H]2CNC(CCN3CCC(O)CC3)C[C@H]2c2ccc(Cl)c(Cl)c2)oc1Cl` (stereo partly drawn) [Compound 114, 5-chloro-4-(4-chloro-1-methyl-1H-pyrazol-5-yl)-N-((3S,4S)-4-(3,4-dichlorophenyl)-6-(2-(4-hydroxylpiperidin-1-yl)ethyl)piperidin-3-yl)furan-2-formamide] gave an IC50 (Akt1) of 14 nM, an IC50 ([1]; Homo sapiens) of 1.56 µM and an IC50 ([2]; Homo sapiens) of 1.1 µM.

`COCCC1C[C@@H](c2ccc(Cl)c(Cl)c2)[C@H](NC(=O)c2cc(-c3c(Cl)cnn3C)c(Cl)o2)CN1` (stereo partly drawn) [Compound 124, 5-chloro-4-(4-chloro-1-methyl-1H-pyrazol-5-yl)-N-((3S,4S)-4-(3,4-dichlorophenyl)-6-(2-methoxyethyl)piperidin-3-yl)furan-2-formamide] was tested, and the IC50 (Akt1) was 1 nM, the IC50 ([1]; Homo sapiens) was 0.56 µM and the IC50 ([2]; Homo sapiens) was 0.34 µM.

`Cn1ncc(Br)c1-c1csc(C(=O)N[C@H]2CNCC[C@@H]2c2ccc(F)c(F)c2)c1` (racemic) [Compound 38, 4-(4-bromo-1-methyl-1H-pyrazol-5-yl)-N-(3,4-trans-4-(3,4-difluorophenyl)piperidin-3-yl)thiophene-2-formamide] showed an IC50 (Akt1) of 409 nM, an IC50 ([1]; Homo sapiens) of 4.69 µM and an IC50 ([2]; Homo sapiens) of 1.94 µM.

`Cn1ncc(Br)c1-c1coc(C(=O)N[C@H]2CNCC[C@@H]2c2ccc(F)c(F)c2)c1` (racemic) [Compound 28, 4-(4-bromo-1-methyl-1H-pyrazol-5-yl)-N-(3,4-trans-4-(3,4-difluorophenyl)piperidin-3-yl)furan-2-formamide] showed an IC50 (Akt1) of 62 nM, an IC50 ([1]; Homo sapiens) of 3.38 µM and an IC50 ([2]; Homo sapiens) of 11.8 µM.

With `CCc1cnn(C)c1-c1ccc(C(=O)N[C@@H]2CNCC[C@H]2c2cccc(F)c2)s1` [Compound 145, 5-(4-ethyl-1-methyl-1H-pyrazol-5-yl)-N-((3S, 4S)-4-(3-fluorophenyl)piperidin-3-yl)thiophene-2-formamide] the IC50 (Akt1) was 4 nM, the IC50 ([1]; Homo sapiens) was 1.06 µM and the IC50 ([2]; Homo sapiens) was 1.47 µM.

Compound `Cn1ncc(Cl)c1-c1cc(C(=O)N[C@@H]2CNC(CCOC(=O)C(F)(F)F)C[C@H]2c2ccc(F)c(F)c2)oc1Cl` (stereo partly drawn) [Compound 132, 2-((4S,5S)-5-(5-chloro-4-(4-chloro-1-methyl-1H-pyrazol-5-yl)furan-2-formamido)-4-(3,4-difluorophenyl)piperidin-2-yl)ethyl 2,2,2-trifluoroacetate] has an IC50 (Akt1) of 2 nM, an IC50 ([1]; Homo sapiens) of 1.33 µM and an IC50 ([2]; Homo sapiens) of 1.21 µM.

In the case of `Cn1ncc(Br)c1-c1coc(C(=O)N[C@H]2CNCC[C@@H]2c2ccc(C(F)(F)F)cc2)c1` (racemic) [Compound 27, 4-(4-bromo-1-methyl-1H-pyrazol-5-yl)-N-(3,4-trans-4-(4-trifluoromethylphenyl)piperidin-3-yl)furan-2-formamide], the IC50 (Akt1) is reported as 17 nM, the IC50 ([1]; Homo sapiens) is reported as 1.82 µM and the IC50 ([2]; Homo sapiens) is reported as 5.89 µM.

`Cn1nccc1-c1csc(C(=O)N[C@H]2CNCC[C@@H]2c2ccc(Cl)cc2)c1` (racemic) [Compound 32, 4-(1-methyl-1H-pyrazol-5-yl)-N-(3,4-trans-4-(4-chlorphenyl)piperidin-3-yl) thiophene-2-formamide] was tested, and the IC50 (Akt1) was 123 nM, the IC50 ([1]; Homo sapiens) was 1.47 µM and the IC50 ([2]; Homo sapiens) was 18.1 µM.

`Cn1ncc(Br)c1-c1ccc(C(=O)N[C@@H]2CNCC[C@H]2c2ccc(Cl)cc2)cc1` [Compound 72, 4-(4-bromo-1-methyl-1H-pyrazol-5-yl)-N-((3S,4S)-4-(4-chlorophenyl)piperidin-3-yl)benzamide] gave an IC50 (Akt1) of 6 nM, an IC50 ([1]; Homo sapiens) of 1.34 µM and an IC50 ([2]; Homo sapiens) of 0.92 µM.

`C[C@H]1CNC[C@@H](NC(=O)c2cc(-c3c(Cl)cnn3C)c(Cl)o2)[C@@H]1c1cccc(F)c1` [Compound 136, 5-chloro-4-(4-chloro-1-methyl-1H-pyrazol-5-yl)-N-((3S, 4S, 5R)-4-(3-fluorophenyl)-5-methylpiperidin-3-yl)furan-2-formamide] was tested, and the IC50 (Akt1) was 2 nM, the IC50 ([1]; Homo sapiens) was 3.68 µM and the IC50 ([2]; Homo sapiens) was 2.81 µM.

`Cc1[nH]c(C(=O)N[C@H]2CNCC[C@@H]2c2ccncc2)cc1-c1c(Br)cnn1C` (racemic) [Compound 6, 5-methyl-4-(4-bromo-1-methyl-1H-pyrazol-5-yl)-N-(3,4-trans-4-(pyridin-4-yl)piperidin-3-yl)-1H-pyrrole-2-formamide] was tested, and the IC50 (Akt1) was 32 nM, the IC50 ([1]; Homo sapiens) was 3.68 µM and the IC50 ([2]; Homo sapiens) was 10.8 µM.

Work on `NC1(C(=O)N[C@@H](CCO)c2ccc(Cl)cc2)CCN(c2nc[nH]c3nccc2-3)CC1` [AZD5363, reference compound] yielded an IC50 [1] of 7.27 µM and an IC50 [2] of 5.2 µM.
